Experiments:
bedstraw = test: Test B pre/postemergence bedstraw; assay type: in vivo, Galium aparine
Outline: (§1)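 Response is a visual 0-to-10 score relative to untreated plants, where 0 means no effect and 10 means complete control, taken twelve to sixteen days after application. Treatments went onto soil at planting and onto foliage of 1- to 4-leaf plants, using a surfactant-containing non-phytotoxic solvent.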

blackgrass = test: Test B pre/postemergence blackgrass; assay type: in vivo, Alopecurus myosuroides
Outline: as §1

surinam grass = test: Test B pre/postemergence surinam grass; assay type: in vivo, Brachiaria decumbens
Outline: as §1

cocklebur = test: Test B pre/postemergence cocklebur; assay type: in vivo, Xanthium strumarium
Outline: as §1

corn = test: Test B pre/postemergence corn; assay type: in vivo, Zea mays
Outline: as §1

crabgrass = test: Test B pre/postemergence crabgrass; assay type: in vivo, Digitaria sanguinalis
Outline: as §1

pigweed = test: Test B pre/postemergence pigweed; assay type: in vivo, Amaranthus retroflexus
Outline: as §1

rape = test: Test B pre/postemergence rape; assay type: in vivo, Brassica napus
Outline: as §1

soybean = test: Test B pre/postemergence soybean; assay type: in vivo, Glycine max
Outline: as §1

sugar beet = test: Test B pre/postemergence sugar beet; assay type: in vivo, Beta vulgaris; conditions: for Plant response rating, Sugarbeets: Rate 250 g/ha
Outline: as §1

velvetleaf = test: Test B pre/postemergence velvetleaf; assay type: in vivo, Abutilon theophrasti; conditions: for Plant response rating, Velvetleaf: Rate 250 g/ha
Outline: as §1

wheat = test: Test B pre/postemergence wheat; assay type: in vivo, Triticum aestivum; conditions: for Plant response rating, Wheat: Rate 250 g/ha
Outline: as §1

wild oat = test: Test B pre/postemergence wild oat; assay type: in vivo, Avena fatua; conditions: for Plant response rating, Wild oats: Rate 250 g/ha
Outline: as §1

purple nutsedge = test: Test B pre/postemergence purple nutsedge; assay type: in vivo, Cyperus rotundus
Outline: as §1

smallflower flatsedge = test: Test B flood test smallflower flatsedge; assay type: in vivo, Cyperus difformis
Outline: (§2)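 Flood test on plants grown to the 2-leaf stage; treated plants kept in greenhouse twelve to sixteen days, then visually rated against controls on a 0 (no effect) to 10 (complete control) scale.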

bamyardgrass = test: Test B flood test barnyardgrass; assay type: in vivo, Echinochloa crus-galli
Outline: as §2

[1] = Postemergence, Rate 62 g/ha, scale 0 to 10, 0 is no effect, 10 is complete control
[2] = Postemergence, Rate 250 g/ha, scale 0 to 10, 0 no effect, 10 complete control
[3] = Preemergence, Rate 62 g/ha, scale 0 to 10 (0 no effect, 10 complete control)
[4] = Preemergence, Rate 125 g/ha, scale 0 to 10 (0 no effect, 10 complete control)
[5] = Preemergence, Rate 250 g/ha, scale of 0 to 10 where 0 is no effect and 10 is complete control
[6] = Preemergence, Rate 500 g/ha, scale 0 to 10 (0 no effect, 10 complete control)
[7] = Rate 125 g/ha, Postemergence, scale 0 to 10, 0 no effect, 10 complete control
[8] = Postemergence, Rate 125 g/ha, scale of 0 to 10 where 0 is no effect and 10 is complete control
[9] = Rate 62 g/ha, Postemergence, scale of 0 to 10 where 0 is no effect and 10 is complete control
[10] = Rate 500 g/ha, Postemergence, scale 0 to 10, 0 no effect, 10 complete control
[11] = Rate 250 g/ha, Postemergence, scale 0 to 10, 0 is no effect, 10 is complete control
[12] = Preemergence, Rate 125 g/ha, 0 is no effect, 10 is complete control
[13] = Preemergence, scale of 0 to 10 where 0 is no effect and 10 is complete control
[14] = Postemergence, scale 0 to 10, 0 is no effect, 10 is complete control
[15] = Rate 250 g/ha, headed Pre-emergence (flood test species), scale 0 to 10 (0 no effect, 10 complete control)
[16] = Rate 500 g/ha, headed Pre-emergence (flood test species), scale 0 to 10 (0 no effect, 10 complete control)
[17] = Rate 500 g/ha, listed under Postemergence (flood test species), scale 0 to 10, 0 no effect, 10 complete control

CCn1c(=O)on(C(=O)N(c2ccc(F)cc2F)C(C)C)c1=O [Compound 116]
Bedstraw plant response rating (bedstraw; [1]): 0
Bedstraw plant response rating (bedstraw; [2]): 9
Bedstraw plant response rating (bedstraw; [3]): 2
Plant response rating, Bedstraw (bedstraw; [4]): 8
Plant response rating, Bedstraw (bedstraw; [5]): 9
Bedstraw plant response rating (bedstraw; [6]): 9
Bedstraw plant response rating (bedstraw; [7]): 6
Blackgrass plant response rating (blackgrass; [8]): 9
Blackgrass plant response rating (blackgrass; [2]): 9
Blackgrass plant response rating (blackgrass; [3]): 9
Plant response rating, Blackgrass (blackgrass; [4]): 9
Plant response rating, Blackgrass (blackgrass; [5]): 10
Blackgrass plant response rating (blackgrass; [6]): 10
Blackgrass plant response rating (blackgrass; [9]): 9
Blackgrass plant response rating (blackgrass; [10]): 9
B. signalgrass plant response rating (surinam grass; [1]): 8
B. signalgrass plant response rating (surinam grass; [2]): 9
B. signalgrass plant response rating (surinam grass; [3]): 4
Plant response rating, B. signalgrass (surinam grass; [4]): 8
Plant response rating, B. signalgrass (surinam grass; [5]): 10
B. signalgrass plant response rating (surinam grass; [6]): 10
B. signalgrass plant response rating (surinam grass; [7]): 9
B. signalgrass plant response rating (surinam grass; Rate 500 g/ha, Postemergence, scale of 0 to 10 where 0 is no effect and 10 is complete control): 9
Cocklebur plant response rating (cocklebur; [8]): 0
Cocklebur plant response rating (cocklebur; [2]): 3
Cocklebur plant response rating (cocklebur; [3]): 0
Plant response rating, Cocklebur (cocklebur; [4]): 0
Plant response rating, Cocklebur (cocklebur; [5]): 0
Cocklebur plant response rating (cocklebur; [6]): 5
Cocklebur plant response rating (cocklebur; [9]): 0
Cocklebur plant response rating (cocklebur; [10]): 5
Corn plant response rating (corn; [8]): 0
Corn plant response rating (corn; [2]): 2
Corn plant response rating (corn; [3]): 0
Plant response rating, Corn (corn; [4]): 2
Plant response rating, Corn (corn; [5]): 6
Corn plant response rating (corn; [6]): 9
Corn plant response rating (corn; [9]): 0
Corn plant response rating (corn; [10]): 7
Crabgrass plant response rating (crabgrass; [8]): 9
Crabgrass plant response rating (crabgrass; [2]): 9
Crabgrass plant response rating (crabgrass; [3]): 8
Plant response rating, Crabgrass (crabgrass; [4]): 10
Plant response rating, Crabgrass (crabgrass; [5]): 10
Crabgrass plant response rating (crabgrass; [6]): 10
Crabgrass plant response rating (crabgrass; [9]): 9
Crabgrass plant response rating (crabgrass; [10]): 9
Redroot pigweed plant response rating (pigweed; [8]): 0
Redroot pigweed plant response rating (pigweed; [3]): 10
Plant response rating, Redroot pigweed (pigweed; [4]): 10
Plant response rating, Redroot pigweed (pigweed; [5]): 10
Redroot pigweed plant response rating (pigweed; [6]): 10
Redroot pigweed plant response rating (pigweed; [9]): 0
Plant response rating, Redroot pigweed (pigweed; [11]): 8
Redroot pigweed plant response rating (pigweed; [10]): 8
Rape plant response rating (rape; [8]): 0
Rape plant response rating (rape; [2]): 8
Rape plant response rating (rape; [3]): 6
Plant response rating, Rape (rape; [4]): 9
Plant response rating, Rape (rape; [5]): 10
Rape plant response rating (rape; [6]): 10
Rape plant response rating (rape; [9]): 0
Rape plant response rating (rape; [10]): 9
Soybean plant response rating (soybean; [8]): 6
Soybean plant response rating (soybean; [3]): 0
Plant response rating, Soybean (soybean; [4]): 7
Plant response rating, Soybean (soybean; [5]): 9
Soybean plant response rating (soybean; [6]): 9
Soybean plant response rating (soybean; [9]): 3
Plant response rating, Soybean (soybean; [11]): 6
Soybean plant response rating (soybean; [10]): 8
Sugarbeets plant response rating (sugar beet; [8]): 3
Sugarbeets plant response rating (sugar beet; [3]): 9
Sugarbeets plant response rating (0 to 10 scale) (sugar beet; [12]): 10
Plant response rating, Sugarbeets (sugar beet; [13]): 10
Sugarbeets plant response rating (sugar beet; [6]): 10
Sugarbeets plant response rating (sugar beet; [9]): 2
Plant response rating, Sugarbeets (sugar beet; [14]): 8
Sugarbeets plant response rating (sugar beet; [10]): 8
Velvetleaf plant response rating (velvetleaf; [8]): 4
Velvetleaf plant response rating (velvetleaf; [3]): 8
Velvetleaf plant response rating (0 to 10 scale) (velvetleaf; [12]): 9
Plant response rating, Velvetleaf (velvetleaf; [13]): 10
Velvetleaf plant response rating (velvetleaf; [6]): 10
Velvetleaf plant response rating (velvetleaf; [9]): 4
Plant response rating, Velvetleaf (velvetleaf; [14]): 7
Velvetleaf plant response rating (velvetleaf; [10]): 8
Wheat plant response rating (wheat; [8]): 6
Wheat plant response rating (wheat; [3]): 3
Wheat plant response rating (0 to 10 scale) (wheat; [12]): 5
Plant response rating, Wheat (wheat; [13]): 8
Wheat plant response rating (wheat; [6]): 8
Wheat plant response rating (wheat; [9]): 0
Plant response rating, Wheat (wheat; [14]): 7
Wheat plant response rating (wheat; [10]): 8
Wild oats plant response rating (wild oat; [8]): 7
Wild oats plant response rating (wild oat; [3]): 7
Wild oats plant response rating (0 to 10 scale) (wild oat; [12]): 7
Plant response rating, Wild oats (wild oat; [13]): 10
Wild oats plant response rating (wild oat; [6]): 10
Wild oats plant response rating (wild oat; [9]): 3
Plant response rating, Wild oats (wild oat; [14]): 7
Wild oats plant response rating (wild oat; [10]): 8
Nutsedge plant response rating (purple nutsedge; [8]): 7
Nutsedge plant response rating (purple nutsedge; [2]): 8
Nutsedge plant response rating (purple nutsedge; [3]): 0
Plant response rating, Nutsedge (purple nutsedge; [4]): 0
Plant response rating, Nutsedge (purple nutsedge; [5]): 0
Nutsedge plant response rating (purple nutsedge; [6]): 0
Nutsedge plant response rating (purple nutsedge; [9]): 5
Nutsedge plant response rating (purple nutsedge; [10]): 9
S. Flatsedge plant response rating (smallflower flatsedge; Postemergence (flood test species), Rate 125 g/ha, scale of 0 to 10 where 0 is no effect and 10 is complete control): 0
S. Flatsedge plant response rating (smallflower flatsedge; Pre-emergence, Rate 1000 g/ha, scale 0 to 10 (0 no effect, 10 complete control)): 0
S. Flatsedge plant response rating (smallflower flatsedge; Rate 62 g/ha, Postemergence section, flood test species, scale of 0 to 10 where 0 is no effect and 10 is complete control): 0
Plant response rating, S. Flatsedge (smallflower flatsedge; Rate 250 g/ha, Postemergence (flood test), scale 0 to 10, 0 is no effect, 10 is complete control): 0
S. Flatsedge plant response rating (smallflower flatsedge; [15]): 0
Plant response rating, S. Flatsedge (smallflower flatsedge; [16]): 0
S. Flatsedge plant response rating (smallflower flatsedge; [17]): 0
S. Flatsedge plant response rating (smallflower flatsedge; Rate 2000 g/ha, Pre-emergence (as headed), scale 0 to 10): 9
Barnyardgrass plant response rating (bamyardgrass; [1]): 0
Barnyardgrass plant response rating (bamyardgrass; Rate 125 g/ha, Postemergence section (flood test species), scale 0 to 10, 0 no effect, 10 complete control): 0
Barnyardgrass plant response rating (bamyardgrass; [15]): 0
Plant response rating, Barnyardgrass (bamyardgrass; [16]): 0
Barnyardgrass plant response rating (bamyardgrass; [17]): 4
Barnyardgrass plant response rating (bamyardgrass; Rate 1000 g/ha, Pre-emergence (as headed), scale 0 to 10): 0
Barnyardgrass plant response rating (bamyardgrass; Rate 2000 g/ha, Pre-emergence (as headed), scale 0 to 10, 0 no effect, 10 complete control): 9
Barnyardgrass plant response rating (bamyardgrass; flood test, listed under Postemergence, Rate 250 g/ha, scale 0 to 10, 0 no effect, 10 complete control): 0

— US6737383B1, “Herbicidal oxadiazolidines” (priority 1999, dated 2004)
